{"source": "ChEMBL document CHEMBL1134347", "about": "“Structure-activity studies of substituted quinoxalinones as multiple-drug-resistance antagonists” (J Med Chem, 2001)", "key": {"MCF7 [1]": {"tested_on": "MCF7", "assay": "Cytotoxicity against MCF-7 breast carcinoma cells at 10 ug/mL", "format": "functional, cell-based", "conditions": "Homo sapiens"}, "[2]": {"target": "Multidrug resistance-associated protein 1 (Homo sapiens, UniProt P33527)", "sequence (P33527 whole entry)": "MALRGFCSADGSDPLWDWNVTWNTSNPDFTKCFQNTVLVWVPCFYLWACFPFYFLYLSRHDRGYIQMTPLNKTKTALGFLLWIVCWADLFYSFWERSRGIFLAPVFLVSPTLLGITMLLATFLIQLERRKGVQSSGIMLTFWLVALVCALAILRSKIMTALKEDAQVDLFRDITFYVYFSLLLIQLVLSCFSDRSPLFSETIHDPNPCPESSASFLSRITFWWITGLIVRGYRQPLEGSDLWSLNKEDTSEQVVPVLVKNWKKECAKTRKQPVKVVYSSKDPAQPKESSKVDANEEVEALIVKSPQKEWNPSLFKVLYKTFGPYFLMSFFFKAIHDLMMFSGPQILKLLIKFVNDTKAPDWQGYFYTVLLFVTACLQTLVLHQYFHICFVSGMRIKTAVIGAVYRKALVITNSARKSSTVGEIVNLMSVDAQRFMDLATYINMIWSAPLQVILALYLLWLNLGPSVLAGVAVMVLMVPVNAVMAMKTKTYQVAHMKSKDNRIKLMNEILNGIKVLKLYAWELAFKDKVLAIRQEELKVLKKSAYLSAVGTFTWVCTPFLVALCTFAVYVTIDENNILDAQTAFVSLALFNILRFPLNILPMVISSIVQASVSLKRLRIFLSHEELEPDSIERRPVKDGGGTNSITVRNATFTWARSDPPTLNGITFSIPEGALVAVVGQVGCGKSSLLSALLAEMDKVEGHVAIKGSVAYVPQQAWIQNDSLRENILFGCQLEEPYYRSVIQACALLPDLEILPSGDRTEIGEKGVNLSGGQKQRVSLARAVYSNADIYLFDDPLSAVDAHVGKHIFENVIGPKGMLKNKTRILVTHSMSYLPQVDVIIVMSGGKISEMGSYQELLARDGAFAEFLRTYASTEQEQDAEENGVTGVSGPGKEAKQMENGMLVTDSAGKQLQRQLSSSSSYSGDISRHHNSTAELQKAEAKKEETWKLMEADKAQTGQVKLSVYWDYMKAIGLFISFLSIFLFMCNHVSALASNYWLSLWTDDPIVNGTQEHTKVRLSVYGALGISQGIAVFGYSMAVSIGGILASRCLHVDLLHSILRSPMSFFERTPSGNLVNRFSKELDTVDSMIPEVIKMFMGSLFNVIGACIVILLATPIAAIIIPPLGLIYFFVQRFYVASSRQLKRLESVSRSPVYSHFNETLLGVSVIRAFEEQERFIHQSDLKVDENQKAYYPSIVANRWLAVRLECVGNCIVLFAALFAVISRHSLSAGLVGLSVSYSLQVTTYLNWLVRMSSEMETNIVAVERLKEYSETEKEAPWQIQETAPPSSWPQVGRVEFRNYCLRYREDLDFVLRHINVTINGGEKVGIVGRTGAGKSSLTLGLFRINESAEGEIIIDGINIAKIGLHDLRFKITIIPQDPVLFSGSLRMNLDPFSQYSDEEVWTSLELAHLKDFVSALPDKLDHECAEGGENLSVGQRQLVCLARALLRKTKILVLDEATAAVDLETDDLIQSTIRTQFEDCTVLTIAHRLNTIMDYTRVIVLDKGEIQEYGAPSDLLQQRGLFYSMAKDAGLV", "assay": "The MRP1 antagonism score is the percentage of MCF-7/VP cells surviving in the absence of vincristine to that of in the presence of vincristine.", "format": "functional"}, "MCF7 [3]": {"tested_on": "MCF7", "format": "functional, Homo sapiens"}}}
{"smiles": "CCOC(=O)c1ccc(OCc2nc3ccccc3n(C)c2=O)cc1", "values": [{"measurement": "IC50", "setting": "MCF7 [1]", "value": "> 74", "unit": "µM"}, {"measurement": "Ratio", "setting": "[2]", "value": 0.9}]}
{"smiles": "Nc1ccc(Br)cc1-c1nc2cc3ccccc3cc2nc1O", "values": [{"measurement": "Toxicity", "setting": "MCF7 [3]", "value": 49, "unit": "%"}, {"measurement": "Ratio", "setting": "[2]", "value": 1.3}]}
{"smiles": "Cn1c(=O)c(COc2ccccc2)nc2ccccc21", "values": [{"measurement": "IC50", "setting": "MCF7 [1]", "value": "> 94", "unit": "µM"}, {"measurement": "Ratio", "setting": "[2]", "value": 1}]}
{"smiles": "Cn1c(=O)c(COc2cccnc2)nc2ccccc21", "values": [{"measurement": "IC50", "setting": "MCF7 [1]", "value": "> 56", "unit": "µM"}, {"measurement": "Ratio", "setting": "[2]", "value": 1.1}]}
{"smiles": "Cn1c(=O)c(COc2c(F)c(F)c(F)c(F)c2F)nc2ccccc21", "values": [{"measurement": "IC50", "setting": "MCF7 [1]", "value": "> 70", "unit": "µM"}, {"measurement": "Ratio", "setting": "[2]", "value": 0.8}]}
{"smiles": "Nc1ccccc1-c1nc2ccccc2nc1O", "values": [{"measurement": "Toxicity", "setting": "MCF7 [3]", "value": 22, "unit": "%"}, {"measurement": "Ratio", "setting": "[2]", "value": 1.1}]}
{"smiles": "Cn1c(=O)c(COc2cccc3ccccc23)nc2ccccc21", "values": [{"measurement": "IC50", "setting": "MCF7 [1]", "value": 20, "unit": "µM"}, {"measurement": "Ratio", "setting": "[2]", "value": 0.9}]}
{"smiles": "Cn1c(=O)c(COc2ccc(C(=O)c3ccccc3)cc2)nc2ccccc21", "values": [{"measurement": "IC50", "setting": "MCF7 [1]", "value": "> 67", "unit": "µM"}, {"measurement": "Ratio", "setting": "[2]", "value": 0.9}]}
{"smiles": "CN(C)c1cccc(OCc2nc3ccccc3n(C)c2=O)c1", "values": [{"measurement": "IC50", "setting": "MCF7 [1]", "value": 57, "unit": "µM"}, {"measurement": "Ratio", "setting": "[2]", "value": 0.9}]}
{"smiles": "Cc1nc2ccccc2nc1O", "values": [{"measurement": "IC50", "setting": "MCF7 [1]", "value": "> 156", "unit": "µM"}, {"measurement": "Ratio", "setting": "[2]", "value": 1.1}]}
{"smiles": "Nc1ccccc1-c1nc2cc3ccccc3cc2nc1O", "values": [{"measurement": "Toxicity", "setting": "MCF7 [3]", "value": 37, "unit": "%"}, {"measurement": "Ratio", "setting": "[2]", "value": 1.3}]}
{"smiles": "Cn1c(=O)c(COc2ccccc2C(=O)Nc2ccccc2)nc2ccccc21", "values": [{"measurement": "IC50", "setting": "MCF7 [1]", "value": "> 32", "unit": "µM"}, {"measurement": "Ratio", "setting": "[2]", "value": 1}]}
{"smiles": "Cn1c(=O)c(Cc2ccccc2)nc2ccccc21", "values": [{"measurement": "IC50", "setting": "MCF7 [1]", "value": "> 100", "unit": "µM"}, {"measurement": "Ratio", "setting": "[2]", "value": 1.1}]}
{"smiles": "CNc1ccc(OC)cc1-c1nc2cc3ccccc3cc2nc1O", "values": [{"measurement": "Toxicity", "setting": "MCF7 [3]", "value": 25, "unit": "%"}, {"measurement": "Ratio", "setting": "[2]", "value": 1}]}
{"smiles": "Cn1c(=O)c(COc2ccccc2Cc2ccccc2)nc2ccccc21", "values": [{"measurement": "IC50", "setting": "MCF7 [1]", "value": 8.1, "unit": "µM"}, {"measurement": "Ratio", "setting": "[2]", "value": 1.1}]}
{"smiles": "CNc1ccc(OC)cc1-c1nc2cc3ccccc3cc2n(C)c1=O", "values": [{"measurement": "Toxicity", "setting": "MCF7 [3]", "value": 3, "unit": "%"}, {"measurement": "Ratio", "setting": "[2]", "value": 2.1}]}
{"smiles": "COC(=O)c1ccc(OCc2nc3ccccc3n(C)c2=O)c(OC)c1", "values": [{"measurement": "IC50", "setting": "MCF7 [1]", "value": 71, "unit": "µM"}, {"measurement": "Ratio", "setting": "[2]", "value": 1.1}]}
{"smiles": "Cn1c(=O)c(COc2ccc(F)cc2)nc2ccccc21", "values": [{"measurement": "IC50", "setting": "MCF7 [1]", "value": 26, "unit": "µM"}, {"measurement": "Ratio", "setting": "[2]", "value": 0.8}]}
{"smiles": "Oc1nc2ccccc2nc1Cc1ccccc1", "values": [{"measurement": "IC50", "setting": "MCF7 [1]", "value": "> 106", "unit": "µM"}, {"measurement": "Ratio", "setting": "[2]", "value": 1}]}
{"smiles": "CNc1ccc(OC)cc1-c1nc2ccccc2n(C)c1=O", "values": [{"measurement": "Toxicity", "setting": "MCF7 [3]", "value": 7, "unit": "%"}, {"measurement": "Ratio", "setting": "[2]", "value": 3.5}]}
{"smiles": "Cn1c(=O)c(COc2ccc(C#N)cc2)nc2ccccc21", "values": [{"measurement": "IC50", "setting": "MCF7 [1]", "value": "> 43", "unit": "µM"}, {"measurement": "Ratio", "setting": "[2]", "value": 0.8}]}
{"smiles": "Cc1cc(OCc2nc3ccccc3n(C)c2=O)ccc1[N+](=O)[O-]", "values": [{"measurement": "IC50", "setting": "MCF7 [1]", "value": "> 77", "unit": "µM"}, {"measurement": "Ratio", "setting": "[2]", "value": 1.1}]}
{"smiles": "CNc1ccccc1-c1nc2cc([N+](=O)[O-])ccc2n(C)c1=O", "values": [{"measurement": "Toxicity", "setting": "MCF7 [3]", "value": 7, "unit": "%"}, {"measurement": "Ratio", "setting": "[2]", "value": 1.1}]}
{"smiles": "Cc1nc2ccccc2n(C)c1=O", "values": [{"measurement": "IC50", "setting": "MCF7 [1]", "value": "> 144", "unit": "µM"}, {"measurement": "Ratio", "setting": "[2]", "value": 0.7}]}
{"smiles": "Cn1c(=O)c(COc2ccc(-c3ccccc3)cc2)nc2ccccc21", "values": [{"measurement": "IC50", "setting": "MCF7 [1]", "value": 30, "unit": "µM"}, {"measurement": "Ratio", "setting": "[2]", "value": 0.7}]}
{"smiles": "Cn1c(=O)c(COc2cccc(Nc3ccccc3)c2)nc2ccccc21", "values": [{"measurement": "IC50", "setting": "MCF7 [1]", "value": 25, "unit": "µM"}, {"measurement": "Ratio", "setting": "[2]", "value": 0.9}]}
{"smiles": "COc1ccc(CCN(C)CCCC(C#N)(c2ccc(OC)c(OC)c2)C(C)C)cc1OC", "note": "(stereo not drawn)", "values": [{"measurement": "IC50", "setting": "MCF7 [1]", "value": "> 51", "unit": "µM"}]}
